From patent US20120065126A1, “Pharmaceutical Compositions Containing Antifungal Peptides” (BASF SE, priority 2009, published 2012)

What was measured:
M. furfur (DSM 6170) = assay: P18 in pharmaceutical base formulation (CFU); type: cell-based, Malassezia furfur; settings: for Colony forming units after the incubation time specified: 10 000 ppm in the formulation, mixed 1:9 with suspension
Experimental: The aim of the experiment was to study the effect of a pharmaceutical base formulation containing the P18 peptide ingredient (P18 sequence H-KWKLFKKIPKFLHLAKKF-NH2 (Bachem AG, Switzerland)) on further fungi and bacteria. For this purpose, the following base formulation was used: […]
1% hydroxycellulose 10% propylene glycol made up with water.
Based on the base formulation, formulations containing 10 000 ppm of P18 peptide were prepared from a 20% concentrate solution.
The effect of the formulations on S. epidermidis (DSM 1798), M. furfur (DSM 6170) and T. rubrum (DSM 21146) was studied.
M472 growth medium according to DSMZ for M. furfur 40 g of malt extract (Becton, Dickinson and Company, Sparks, USA) 20 g of ox bile (Merck, Darmstadt, Germany)
For M. furfur, 5 ml of medium were inoculated with the microorganism and incubated at 30° C. and 200 rpm overnight.
1.5 ml reaction vessels were each filled with 1 ml of medium and inoculated with the fungal or bacterial suspension from the overnight culture such that the resulting suspensions at the start of the experiment had been adjusted to an optical density, measured at 600 nm, of 0.1. The resulting suspension was mixed with the formulations in a ratio of 1:9 (formulation: microbial suspension). 1 μl of the culture was diluted with 20 μl of medium after 5 minutes and 60 minutes and then plated out. After incubation over 24 hours, the colonies on the plates were counted.

M. furfur = assay: Long-term stability of P18 in shampoo base formulations (CFU); type: cell-based, Malassezia furfur; settings: formulations 31-1-10, 31-3-5, 31-3-2 stored at 40° C.; 0, 12 and 22 days
Experimental: The studies described hereinafter were conducted on the Malassezia furfur strain DSM 6170.
The long-term stability of P18 peptide (H-KWKLFKKIPKFLHLAKKF-NH2; carboxyl terminus amidated) in shampoo base formulations was tested.
The Texapon NSO and Tego Betain L7 components were mixed and dissolved. NaOH was used to adjust the pH to pH 6-7. Thereafter, a 100 mM aqueous solution of peptide P18 was prepared. The appropriate volume of the 100 mM P18 peptide solution was added to each of the formulations, such that the final concentrations of peptide P18 listed in Table 15 were obtained.
The formulations were stored at 40° C.
After 0; 12 and 22 days, the effect of the formulations on M. furfur was studied.
The growth test was effected as follows: a shake culture containing M472 Pityrosporum medium was inoculated with M. furfur and incubated with shaking at 30° C. and 200 rpm overnight.
A 96-well microtiter plate was filled with 100 μl per well of M472 Pityrosporum medium and inoculated with M. furfur suspension from the overnight culture. The M. furfur suspension was adjusted at the start of the experiment to an optical density, measured at 600 nm, of 0.1. […]
After 24 hours, the colony forming units (CFU) were determined. For this purpose, 1 μl and 10 μl of each of the suspensions were streaked and, after incubation over the course of 6 days, the colonies were counted.

Malassezia furfur = assay: Effect of P18 in the presence of nonionic and zwitterionic surfactants (CFU); type: cell-based; settings: 24 hours
Experimental: The aim of the experiment was to study the effect of nonionic and zwitterionic surfactants on the activity of P18 peptide (P18 sequence […]). For this purpose, the following surfactants were used: Pluracare F 68 (a polyoxyethylene-polyoxypropylene-polyoxyethylene block copolymer) Plantacare 818 (a glucoside) Tego Betain L7 (cocamidopropyl betaine) The growth test was effected as follows: a shake culture containing […]. furfur and incubated with shaking at 30° C. and 200 rpm overnight. […] The concentrations of the detergent solutions were adjusted such that the final concentration of the particular detergent in the mixture was 2%; 4% or 6%. The concentrations of the P18 peptide solutions were adjusted such that the final concentration of the P18 peptide in the mixture was 0 μM; 50 μM; 100 μM; 250 μM; or 500 μM. The microtiter plate was incubated with shaking at 30° C. […] The CFU was determined in order to rule out any influence of the biphasic medium, and also the growth form of M. furfur, on the optical density. The experiments were each conducted in triplicate determination at least in two independent experiments.

Question: With “H-KWKLFKKIPKFLHLAKKF-NH2 [P18, H-KWKLFKKIPKFLHLAKKF-NH2]” as the substance, how does the “Colony forming units after the incubation time specified” value (M. furfur (DSM 6170); 5 minutes) read?
Answer: 671 ± 13 CFU

Question: What about the “Colony forming units after the incubation time specified” value (M. furfur (DSM 6170); 60 minutes) of the same substance?
Answer: 2 ± 2 CFU

Question: What about the “Reduction in the cell count” value (M. furfur (DSM 6170); treatment with a formulation which comprised P18, highest reduction of Example 22) of the same substance?
Answer: > 300 fold

Question: And the “Long-term stability in shampoo base formulations” value (M. furfur)?
Answer: stable properties

Question: And the “Colony forming units (CFU) counted per μl” value (Malassezia furfur; Plantacare 818 2%, P18 50 μM)?
Answer: 6 CFU per μl

Question: What about the “Colony forming units (CFU) counted per μl” value (Malassezia furfur; Plantacare 818 2%, P18 100 μM) of the same substance?
Answer: 0 CFU per μl

Question: And the “Colony forming units (CFU) counted per μl” value (Malassezia furfur; Plantacare 818 2%, P18 250 μM)?
Answer: 0 CFU per μl

Question: What about the “Colony forming units (CFU) counted per μl” value (Malassezia furfur; Plantacare 818 2%, P18 500 μM) of the same substance?
Answer: 0 CFU per μl

Question: What about the “Colony forming units (CFU) counted per μl” value (Malassezia furfur; Plantacare 818 4%, P18 50 μM) of the same substance?
Answer: 39 CFU per μl

Question: And the “Colony forming units (CFU) counted per μl” value (Malassezia furfur; Plantacare 818 4%, P18 100 μM)?
Answer: 5 CFU per μl

Question: And the “Colony forming units (CFU) counted per μl” value (Malassezia furfur; Plantacare 818 4%, P18 250 μM)?
Answer: 0 CFU per μl

Question: What about the “Colony forming units (CFU) counted per μl” value (Malassezia furfur; Plantacare 818 4%, P18 500 μM) of the same substance?
Answer: 0 CFU per μl

Question: And the “Colony forming units (CFU) counted per μl” value (Malassezia furfur; Plantacare 818 6%, P18 50 μM)?
Answer: 106 CFU per μl

Question: What about the “Colony forming units (CFU) counted per μl” value (Malassezia furfur; Plantacare 818 6%, P18 100 μM) of the same substance?
Answer: 10 CFU per μl

Question: And the “Colony forming units (CFU) counted per μl” value (Malassezia furfur; Plantacare 818 6%, P18 250 μM)?
Answer: 0 CFU per μl

Question: What about the “Colony forming units (CFU) counted per μl” value (Malassezia furfur; Plantacare 818 6%, P18 500 μM) of the same substance?
Answer: 0 CFU per μl

Question: What about the “Colony forming units (CFU) counted per μl” value (Malassezia furfur; Pluracare F68 2%, P18 50 μM) of the same substance?
Answer: 4 CFU per μl

Question: What about the “Colony forming units (CFU) counted per μl” value (Malassezia furfur; Pluracare F68 2%, P18 100 μM) of the same substance?
Answer: 1 CFU per μl

Question: And the “Colony forming units (CFU) counted per μl” value (Malassezia furfur; Pluracare F68 2%, P18 250 μM)?
Answer: 0 CFU per μl

Question: And the “Colony forming units (CFU) counted per μl” value (Malassezia furfur; Pluracare F68 2%, P18 500 μM)?
Answer: 0 CFU per μl

Question: What about the “Colony forming units (CFU) counted per μl” value (Malassezia furfur; Pluracare F68 4%, P18 50 μM) of the same substance?
Answer: 2 CFU per μl

Question: What about the “Colony forming units (CFU) counted per μl” value (Malassezia furfur; Pluracare F68 4%, P18 100 μM) of the same substance?
Answer: 0 CFU per μl

Question: What about the “Colony forming units (CFU) counted per μl” value (Malassezia furfur; Pluracare F68 4%, P18 250 μM) of the same substance?
Answer: 0 CFU per μl

Question: And the “Colony forming units (CFU) counted per μl” value (Malassezia furfur; Pluracare F68 4%, P18 500 μM)?
Answer: 0 CFU per μl

Question: And the “Colony forming units (CFU) counted per μl” value (Malassezia furfur; Tego Betain L7 2%, P18 50 μM)?
Answer: 0 CFU per μl

Question: What about the “Colony forming units (CFU) counted per μl” value (Malassezia furfur; Tego Betain L7 2%, P18 100 μM) of the same substance?
Answer: 0 CFU per μl

Question: What about the “Colony forming units (CFU) counted per μl” value (Malassezia furfur; Tego Betain L7 2%, P18 250 μM) of the same substance?
Answer: 0 CFU per μl

Question: What about the “Colony forming units (CFU) counted per μl” value (Malassezia furfur; Tego Betain L7 2%, P18 500 μM) of the same substance?
Answer: 0 CFU per μl

Question: What about the “Colony forming units (CFU) counted per μl” value (Malassezia furfur; Tego Betain L7 4%, P18 50 μM) of the same substance?
Answer: 3 CFU per μl

Question: And the “Colony forming units (CFU) counted per μl” value (Malassezia furfur; Tego Betain L7 4%, P18 100 μM)?
Answer: 0 CFU per μl

Question: And the “Colony forming units (CFU) counted per μl” value (Malassezia furfur; Tego Betain L7 4%, P18 250 μM)?
Answer: 0 CFU per μl

Question: What about the “Colony forming units (CFU) counted per μl” value (Malassezia furfur; Tego Betain L7 4%, P18 500 μM) of the same substance?
Answer: 0 CFU per μl

Question: And the “Colony forming units (CFU) counted per μl” value (Malassezia furfur; Tego Betain L7 6%, P18 50 μM)?
Answer: 0 CFU per μl

Question: What about the “Colony forming units (CFU) counted per μl” value (Malassezia furfur; Tego Betain L7 6%, P18 100 μM) of the same substance?
Answer: 0 CFU per μl

Question: And the “Colony forming units (CFU) counted per μl” value (Malassezia furfur; Tego Betain L7 6%, P18 250 μM)?
Answer: 0 CFU per μl

Question: What about the “Colony forming units (CFU) counted per μl” value (Malassezia furfur; Tego Betain L7 6%, P18 500 μM) of the same substance?
Answer: 0 CFU per μl
